The record followed here is ChEMBL document CHEMBL1137032, “Nonpeptide alpha V beta 3 antagonists. Part 10: In vitro and in vivo evaluation of a potent 7-methyl substituted tetrahydro-[1,8]naphthyridine derivative” (Bioorg Med Chem Lett, 2004).

Where “and” joins values, the source holds several entries; their conditions need not be identical. Equal values may be shown once.

A short description of series [1]: Effect was measured in male rats on distal femoral metaphysis bone mineral density. In kind it is ADME. The following applies: rat.
A short description of series [2]: Clearance value in rhesus monkey. In kind it is ADME, organism-based. The following applies: cercopithecidae, in vivo.
In series [3] the target is Integrin alpha-V/beta-3 (Homo sapiens) (UniProt P05106+P06756). Briefly: In vitro binding affinity against integrin Alpha-v Beta3 receptor in SPA assay. It counts as protein-complex assay.
The nature of series [4]: Human plasma binding affinity was determined. In kind it is ADME, cell-free. Particulars: read-out: PB (converted).
Series [5] in a line: Clearance value in rat. In kind it is ADME, organism-based. Particulars: in vivo.
The nature of series [6]: Clearance value in dog. In kind it is ADME, organism-based, Canis lupus familiaris. The following applies: in vivo.
A short description of series [7]: Bioavailability in rhesus monkey. It counts as ADME, organism-based. Particulars: in vivo.
Series [8] is described as follows: Bioavailability in rat. It counts as ADME, organism-based. The following applies: in vivo.
Series [9] in a line: Plasma clearance in rat. Particulars: in vivo. In kind it is ADME, organism-based.
Series [10] is described as follows: Plasma clearance in dog. It counts as ADME, organism-based, Canis lupus familiaris. Particulars: in vivo.
Series [11] can be described thus: Partition coefficient (logP). The following applies: octanol/water. In kind it is physicochemical.
Series [12] in a line: Plasma clearance in rhesus monkey. It counts as ADME, organism-based. Particulars: cercopithecidae, in vivo.
Series [13] is described as follows: Bioavailability in dog. It counts as ADME, organism-based, Canis lupus familiaris. Particulars: in vivo.
A short description of series [14]: Bioavailability in rhesus Monkey. It counts as ADME, organism-based, Macaca mulatta. The following applies: in vivo.
Series [15] is described as follows: Half life in dog. In kind it is ADME, Canis lupus familiaris. Particulars: in vivo.

As usually defined, the clearance is the rate of elimination divided by the concentration. In general, bioavailability refers to the share of a dose that reaches the circulation, judged against a reference dose that is usually intravenous. As to `COc1ccc([C@H](CC(=O)O)N2CCN(CCCc3ccc4c(n3)NCCC4)C2=O)cn1`, the DFMBMD in [1] was 133 mg/Ecm and 145 mg/Ecm and 157.2 mg/Ecm. Moreover, the clearance in [2] stood at 9 mL/min/kg; in series [5] it was 47 mL/min/kg; in [6], 6.4 mL/min/kg. The SPAV3 in [3] amounted to 0.08 nM. The fraction unbound in [4] was 0.12. The compound further returned a bioavailability in series [7] of 74%.
One may read the logP as a log measure of how a compound divides between an organic and an aqueous phase. With `COc1ccc([C@H](CC(=O)O)N2CCN(CCCc3ccc4c(n3)N[C@@H](C)CC4)C2=O)cn1`, the results for the bioavailability in [8], in [13] and in series [14] were 50%, 83% and 75%, respectively. Besides, the clearance in series [9] was 41 mL/min/kg; in series [10] it was 1.7 mL/min/kg; in series [12] it was 3.5 mL/min/kg. The compound further displayed a logP in [11] of 0.69. The DFMBMD in series [1] is 137 mg/Ecm and 147.9 mg/Ecm and 161 mg/Ecm and 141.1 mg/Ecm and 156.6 mg/Ecm. The compound also gave an SPAV3 in [3] of 0.11 nM. In addition, the fraction unbound in series [4] is 0.05.
Compound `COc1ccc([C@H](CC(=O)O)N2CCN(CCCc3ccc4c(n3)N[C@H](C)CC4)C2=O)cn1` displayed a logP in series [11] of 0.56. Besides, the SPAV3 in series [3] is 0.11 nM. In [4], the fraction unbound was 0.08.
The half-life is the time needed for the level to fall by half in the phase considered. In series [10], `COc1ccc([C@H](CC(=O)O)N2CCN(CCCc3nc4c(cc3C)CCCN4)C2=O)cn1` displayed a clearance of 18 mL/min/kg. The same compound yielded a logP in [11] of 0.62. Further, in series [3], the SPAV3 came to 0.13 nM. Moreover, in series [4], the fraction unbound was 0.22. This compound also came in with a bioavailability in series [13] of 55%. In series [15], the half-life is 2.2 h.
